Assay results as given in EP4516281A1, “COSMETIC COMPOSITIONS” (The Boots Company plc, priority 2023, dated 2025).

Each molecule was assayed on mushroom tyrosinase (assay: Tyrosinase inhibition screening (L-DOPA oxidation, absorbance at 470 nm)). Details: Concentration 0.1%; single compounds.
Assay type: biochemical
From the text: The tyrosinase inhibition may be used to determine the tyrosinase inhibition ability of the compounds. The test comprises adding the test compound to a solution of L-dihydroxyphenylalanine (L-(DOPA)) and mushroom tyrosinase. L-(DOPA) is converted to […] by the mushroom tyrosinase, causing a brown colour to form. Inhibition of this reaction prevents the brown colour formation. The lighter the colour at the end of the reaction, the stronger is the inhibitory effect of the active. Absorbance data may be collected using a plate reacted set up to have a kinetic read every 1 minute for 30 minutes, where absorbance is read at 470 nm.

Q: How did the “Tyrosinase Inhibition (%)” value turn out when `O=C(O)C(O)c1ccccc1` (stereo not shown) [C, Mandelic acid] was run?
A: Its value is 80.279%.

Q: With `C=C(C)[C@@H]1CCC(C)=C[C@H]1c1c(O)cc(CCCCC)cc1O` [F, Cannabidiol isolate (CBD)] as the molecule, how does the “Tyrosinase Inhibition (%)” value read?
A: The value was 9.134%.

Q: How did the “Tyrosinase Inhibition (%)” value turn out when `CCCCCCCCCCCCCCC[C@@H](O)[C@@H](N)CO` [G, Sphinganine] was run?
A: Its value is -5.78%.

Q: For Feruloyl oligopeptide-33, which “Tyrosinase Inhibition (%)” value is on record?
A: The value was 41.765%.
